# Marks after values point to notes of the source that are not given here.
# What was measured:
# [1] = test system: blood of patients with AML; assay: Hemogram of blood of patients with AML after exposure (Example 13, Table 10; also OMML); type: cell-based
# Procedure: (§4) The drugs Cytosar (Alexan) (Ebewe Pharma, Austria) and doxorubicin (Naprod, Mumbai, India) recommended by WHO for the treatment of the above oncohematological diseases were used as comparison drugs.
# (§5) 5 ml of venous blood from sick and conditionally healthy individuals were collected into Vacutainer tubes with the addition of EDTA (Himedia, India).
# (§6) The resulting blood was divided into aliquots of 1 ml and 10 µl (10 µg/ml) of the studied drugs (cytosar, doxorubicin, F1 and F2) were added to each tube.
# [2] = test system: blood of patients with leukemia (combined group); assay: Hemogram of blood of patients with leukemia (combined group) after exposure; type: cell-based
# Text: (§7) The effect of compounds F1 and F2 was studied on biological material (blood) of patients with hematological malignancies (leukemia), as well as for individual nosologies, in particular, patients with leukemia (combined group) (n=224), T-ALL (n=84), B-ALL (n=100), ALL (n=100), AML (n= 98), AML (n=94) and AML (n= 98) were studied. A total of 798 blood samples from patients with leukemia were examined.
# as §4, §5, §6
# [3] = test system: CCRF-CEM (CCL-119) (T-lymphoblastic leukemia); assay: MTT cytotoxicity on CCRF-CEM cells; type: cell-based; conditions: Homo sapiens, 24 hours
# Procedure: (§1) The cytotoxic properties of the compounds were determined in vitro using the MTT method in 96-well plates (Costar, USA). […] Rat liver hepatocytes were obtained according to the method, human blood mononuclear cells - according to [23]. Fibroblast cells were obtained according to the method of [24] with some modifications. Cell cultures were subcultured into 96-well plates according to the method of [21] by adding 100 μl of nutrient medium. The CCRF-CEM suspension culture was poured into a tube, centrifuged at 800 rpm for 10 minutes, and the supernatant was discarded. […] Data obtained in 3 independent experiments were expressed as the mean value for each concentration ± standard error of the mean, relative to the control values (cells without test compounds). The cytotoxic effect of each of the studied compounds was compared with the effect of the cytostatic Cisplatin-Naprod (India), containing cisplatin as an active component. Table 1: IC50 μM value for test compounds
# [4] = test system: blood of patients with AML; assay: Hemogram of blood of patients with AML after exposure (Example 12, Table 9); type: cell-based
# Procedure: as §4, §5, §6
# [5] = Acute toxicity study (LD50); conditions: mouse, in vivo, ip
# Procedure: (§2) We studied the acute toxicity of compound F1 in vivo. The experiments were carried out on outbred white mice of both sexes weighing 18-20 g (24 pcs.). The animals were divided into groups of 12 mice each. The compound was dissolved in DMSO and then adjusted to the desired concentration with 0.9% NaCl solution and administered intraperitoneally and subcutaneously in a dose range from 5.0 to 200.0 mg/kg. […] The maximum relative error of the applied dose was no more than 5%.
# (§3) We studied the acute toxicity of compound F2 in vivo. The experiments were carried out on outbred white mice of both sexes weighing 18-20 g (24 pcs.). The animals were divided into groups of 12 mice each. The compound was dissolved in DMSO and then brought to the desired concentration with 0.9% NaCl solution and administered intraperitoneally and subcutaneously to animals in a dose range from 5.0 to 200.0 mg/kg. […] The maximum relative error of the administered dose was no more than 5%.
# outbred white mice = assay: Acute toxicity study (LD50)
# Procedure: as §2, §3
# Rat liver hepatocytes = assay: MTT cytotoxicity on hepatocytes; type: cell-based; conditions: Rattus norvegicus, Hepatocyte, 24 hours
# Procedure: as §1
# [6] = test system: blood of patients with B-ALL; assay: Hemogram of blood of patients with B-ALL after exposure; type: cell-based
# Procedure: A total of 798 blood samples from patients with leukemia were examined.
# as §4, §5, §6
# [7] = test system: blood of patients with AML; assay: Hemogram of blood of patients with AML after exposure (Example 14, Table 11); type: cell-based
# Text: as §7, §4, §5, §6
# [8] = test system: blood of patients with T-ALL; assay: Hemogram of blood of patients with T-ALL after exposure; type: cell-based
# Text: as §7, §4, §5, §6
# [9] = test system: blood of patients with ALL; assay: Hemogram of blood of patients with ALL after exposure; type: cell-based
# Procedure: as §7, §5, §6
# fibroblasts = assay: MTT cytotoxicity on fibroblasts; type: cell-based; conditions: Fibroblast, 24 hours
# Procedure: as §1
# [10] = AML (Example 13), compared with doxorubicin
# [11] = AML (Table 10), 10 µg/ml, 3 hours, 37.0°C
# [12] = AML (Table 9), 10 µg/ml, 3 hours, 37.0°C
# [13] = AML (Example 14), compared to cytosar
# [14] = AML (Table 11), 10 µg/ml, 3 hours, 37.0°C
smiles,measurement,setting,value
"COc1cc2c(cc1OC)C(c1cc3c(cc1Br)OCO3)NCC2 (centres unmarked) [Compound F1, 1-(2'-bromo-4',5'-methylenedioxyphenyl)-6,7-dimethoxy-1,2,3,4-tetrahydroisoquinoline]",decrease in the percentage of myelocytes,[1]; AML (Example 13),2.5 times
same,decrease in the proportion of blasts,[1]; AML (Example 13),1.6%
same,increase in the proportion of destroyed cells,[1]; AML (Example 13),5.3 times
same,increase in the proportion of neutrophils,[1]; AML (Example 13),2.0 times
same,proportion of destroyed cells higher,"[1]; AML (Example 13), compared with Cytosar",2.4 times
same,myelocytes lower,[1]; [10],1.5 times
same,proportion of destroyed cells higher,[1]; [10],1.2 times
same,percentage of myelocytes lower,"[1]; AML (Example 13), relative to cytosar",6.15 times
same,Band (s/n) neutrophils,[1]; [11],"2,8±0,3%"
same,Blasts,[1]; [11],"51,1±2,2%"
same,Destroyed cells,[1]; [11],"18,7±1,3*^ # %"
same,Eosinophils,[1]; [11],"0,8±0,3%"
same,Lymphocytes,[1]; [11],"6,2±0,6%"
same,Monocytes,[1]; [11],"1,4±0,2 %"
same,Myelocytes,[1]; [11],"2,6±0,5 %"
same,Promyelocytes,[1]; [11],"0,0±0,0%"
same,Segmented (s/i) neutrophils,[1]; [11],"16,6±1,3 %"
same,Band (s/n) neutrophils,"[2]; 10 µg/ml, 3 hours, 37.0°C","2,5±0,3 %"
same,Blasts,"[2]; 10 µg/ml, 3 hours, 37.0°C","65,7±2,3 %"
same,Destroyed cells,"[2]; 10 µg/ml, 3 hours, 37.0°C","14,8±1,8*^ # %"
same,Eosinophils,"[2]; 10 µg/ml, 3 hours, 37.0°C","4,0±0,6 %"
same,Lymphocytes,"[2]; 10 µg/ml, 3 hours, 37.0°C","12,0±0,9%"
same,Monocytes,"[2]; 10 µg/ml, 3 hours, 37.0°C","4,9±0,6 %"
same,Myelocytes,"[2]; 10 µg/ml, 3 hours, 37.0°C","4,0±0,5 %"
same,Promyelocytes,"[2]; 10 µg/ml, 3 hours, 37.0°C","5,0±0,6^ %"
same,Segmented (s/i) neutrophils,"[2]; 10 µg/ml, 3 hours, 37.0°C","7,0±0,8%"
same,decrease in the content of blasts,[2]; versus Control group,10.7%
same,increase in the percentage of neutrophils,[2]; versus control,1.8 times
same,increase in the proportion of destroyed cells,[2]; versus control,9.3%
same,increase in the proportion of eosinophils,[2]; versus control,2.7 times
same,IC50,[3],36.6 µM
same,decrease in the percentage of blasts,[4]; AML (Example 12),1.2 times
same,increase in the level of destroyed cells,[4]; AML (Example 12),4.5 times
same,increase in the proportion of mature differentiated neutrophils,[4]; AML (Example 12),2.6 times
same,increase in the percentage of destroyed cells,"[4]; AML (Example 12), compared with cytosar",2.0 times
same,decrease in the percentage of destroyed cells,"[4]; AML (Example 12), compared with doxorubicin",2.3 times
same,Band (s/n) neutrophils,[4]; [12],"1,2±0,3%"
same,Blasts,[4]; [12],"63,6±2,3 %"
same,Destroyed cells,[4]; [12],"12,7±1,2*^ # %"
same,Eosinophils,[4]; [12],"0,4±0,2%"
same,Lymphocytes,[4]; [12],"10,7±1,1%"
same,Monocytes,[4]; [12],"3,0±0,7%"
same,Myelocytes,[4]; [12],"1,2±0,6%"
same,Promyelocytes,[4]; [12],"0,3±0,2%"
same,Segmented (s/i) neutrophils,[4]; [12],"7,0±0,7 %"
same,LD50 at 168 h,[5],240 ± 13.8 mg/kg
same,toxicity class,outbred white mice; classified from LD50,toxicity class 3 (moderately toxic)
same,LD50 dose,"outbred white mice; intraperitoneal, mice, observed for a week, 10080 min","240,0±13,8 mg/kg"
same,"LD50 value, times higher than cytosar (cytarabine)",outbred white mice; relative to cytosar,57 times
same,"LD50 value, times higher than doxorubicin",outbred white mice; relative to doxorubicin,22 times
same,IC50,Rat liver hepatocytes,> 100 µM
same,decrease in the content of blasts,[6],1.16 times
same,increase in the proportion of destroyed cells,[6],4.1 times
same,Band (s/n) neutrophils,"[6]; 10 µg/ml, 3 hours, 37.0°C","1,4±0,4%"
same,Blasts,"[6]; 10 µg/ml, 3 hours, 37.0°C","59,0±2,9 %"
same,Destroyed cells,"[6]; 10 µg/ml, 3 hours, 37.0°C","12,6±2,0 %"
same,Eosinophils,"[6]; 10 µg/ml, 3 hours, 37.0°C","0,2±0,1%"
same,Lymphocytes,"[6]; 10 µg/ml, 3 hours, 37.0°C","13,5±1,7 %"
same,Monocytes,"[6]; 10 µg/ml, 3 hours, 37.0°C","3,5±0,8 %"
same,Myelocytes,"[6]; 10 µg/ml, 3 hours, 37.0°C","0,5±0,2%"
same,Promyelocytes,"[6]; 10 µg/ml, 3 hours, 37.0°C","0,0±0,0%"
same,Segmented (s/i) neutrophils,"[6]; 10 µg/ml, 3 hours, 37.0°C","9,4±0,9 %"
same,percentage of blasts lower,[7]; [13],4.1%
same,percentage of monocytes lower,[7]; [13],2.4 times
same,percentage of destroyed cells higher,"[7]; AML (Example 14), than after Cytosar",1.8 times
same,Band (s/n) neutrophils,[7]; [14],"1,6±0,5%"
same,Blasts,[7]; [14],"55,4±3,1 %"
same,Destroyed cells,[7]; [14],"22,6±2,3*^ %"
same,Eosinophils,[7]; [14],"0,0±0,0%"
same,Lymphocytes,[7]; [14],"10,1±1,0%"
same,Monocytes,[7]; [14],"2.0±0,6^ %"
same,Myelocytes,[7]; [14],"0,9±0,3%"
same,Promyelocytes,[7]; [14],"0,0±0,0%"
same,Segmented (s/i) neutrophils,[7]; [14],"9,6±1,7%"
same,Band (s/n) neutrophils,"[8]; 10 µg/ml, 3 hours, 37.0°C",0.0±0.0%
same,Blasts,"[8]; 10 µg/ml, 3 hours, 37.0°C","68,9±1,7 %"
same,Destroyed cells,"[8]; 10 µg/ml, 3 hours, 37.0°C","16,9±1,1*^ # %"
same,Eosinophils,"[8]; 10 µg/ml, 3 hours, 37.0°C","0,0±0,6%"
same,Lymphocytes,"[8]; 10 µg/ml, 3 hours, 37.0°C","9,1±1,0%"
same,Monocytes,"[8]; 10 µg/ml, 3 hours, 37.0°C","1,3±0,3 %"
same,Myelocytes,"[8]; 10 µg/ml, 3 hours, 37.0°C","0,0±0,0%"
same,Promyelocytes,"[8]; 10 µg/ml, 3 hours, 37.0°C","0,0±0,0%"
same,Segmented (s/i) neutrophils,"[8]; 10 µg/ml, 3 hours, 37.0°C","3.9±0,4 %"
same,decrease in p/i neutrophils,[8]; comparator not stated,1.7 times
same,increase in the proportion of destroyed cells,[8]; compared with cytosar,1.9 times
same,increase in the proportion of destroyed cells,[8]; compared with doxorubicin,1.3 times
same,Band (s/n) neutrophils,"[9]; 10 µg/ml, 3 hours, 37.0°C","0,3±0,1%"
same,Blasts,"[9]; 10 µg/ml, 3 hours, 37.0°C","68,4±2,7*^ %"
same,Destroyed cells,"[9]; 10 µg/ml, 3 hours, 37.0°C","12,9±1,7*^ %"
same,Eosinophils,"[9]; 10 µg/ml, 3 hours, 37.0°C","0,0±0,0%"
same,Lymphocytes,"[9]; 10 µg/ml, 3 hours, 37.0°C","12,6±1,1 %"
same,Monocytes,"[9]; 10 µg/ml, 3 hours, 37.0°C","1,8±0,4%"
same,Myelocytes,"[9]; 10 µg/ml, 3 hours, 37.0°C","0,0±0,0%"
same,Promyelocytes,"[9]; 10 µg/ml, 3 hours, 37.0°C","0,0±0,0%"
same,Segmented (s/i) neutrophils,"[9]; 10 µg/ml, 3 hours, 37.0°C","4,2±1,0 %"
same,percentage of destroyed cells higher,[9]; compared to cytosar,2.7 times
same,difference in the level of blast cells,[9]; compared with cytosar,1.15 times
same,IC50,fibroblasts,> 100 µM

# Source: patent publication EP4506003A1, “HALOGEN DERIVATIVES OF (4´,5´- METHYLENEDIOXYPHENYL)-6,7-DIMETHOXY-1,2,3,4-TETRAHYDROISOQUINOLINE FOR USE IN THE TREATMENT OF LEUKEMIA” (S.Yu Yunusov Institute of Chemistry of Plant Substances of …, priority 2023, dated 2025)
